In article PMC7658428, “Pigment Dispersing Factors and Their Cognate Receptors in a Crustacean Model, With New Insights Into Distinct Neurons and Their Functions” (Frontiers in Neuroscience, 2020):
“Also recorded” adds a separate entry of the source. Where no end group is shown, it is not given here.

Key:
[1] = test system: black chromatophores (melanophores) in the dactyl of the last walking leg; assay: chromatophore dispersion bioassay in vivo, black chromatophores (melanophores); set-up: species or system Carcinus maenas; settings: injected 0.05–5 pmol per crab; n = 6 crabs; melanophores were invariably partially dispersed in all crabs
Experimental: (§1) The pigmentary effector activity of all PDHs was measured in vivo using small (15–20 mm carapace width) C. maenas, which were light adapted against a white background (300 lux for 1 h). Pigment dispersion of the red and black chromatophores in the dactyl of the last walking leg was observed microscopically and indices of dispersion scored ([Hogben and Slome, 1931]). Peptides were reconstituted in physiological saline ([Saver et al., 1999]) immediately prior to assay, to minimize Met oxidation (storage of reconstituted peptides in frozen saline for extended periods completely abolished biological activity) and injected (10 μl) using hand-drawn, calibrated microcapillaries at 50–0.05 pmol per crab, with saline controls. Chromatophore dispersion indices were scored at 20 min intervals for 1 h.
(§2) FIGURE 9 The effect of PDHs on pigment migration in epidermal chromatophores of the 5th walking leg dactylus of C. maenas. Left panel: erythrophores, right panel: melanophores. Peptides were injected at 0.05–5 pmol per crab for PDH-1, -2, 5–50 pmol per crab for PDH-3, e-PDH, in 10 μl volumes. Mean (n = 6 crabs) chromatophore indices (Hogben-Slome) are indicated. Asterisks indicate significant differences in chromatophore stage (p < 0.05, Wilcoxon sign-rank test) 40 min after injection of peptide, compared to 0 min.

[2] = target: T1, PDHR 43673 (Carcinus maenas, UniProt A0A7G7MT97); assay: heterologous aequorin-based receptor luminescence assay, PDHR 43673; format: cell-based; settings: Ca2+ luminescence; for activation of PDHR 43673 (in words): CHO-K1-Aeq-Gα16 cells
T1 sequence (A0A7G7MT97 1-455): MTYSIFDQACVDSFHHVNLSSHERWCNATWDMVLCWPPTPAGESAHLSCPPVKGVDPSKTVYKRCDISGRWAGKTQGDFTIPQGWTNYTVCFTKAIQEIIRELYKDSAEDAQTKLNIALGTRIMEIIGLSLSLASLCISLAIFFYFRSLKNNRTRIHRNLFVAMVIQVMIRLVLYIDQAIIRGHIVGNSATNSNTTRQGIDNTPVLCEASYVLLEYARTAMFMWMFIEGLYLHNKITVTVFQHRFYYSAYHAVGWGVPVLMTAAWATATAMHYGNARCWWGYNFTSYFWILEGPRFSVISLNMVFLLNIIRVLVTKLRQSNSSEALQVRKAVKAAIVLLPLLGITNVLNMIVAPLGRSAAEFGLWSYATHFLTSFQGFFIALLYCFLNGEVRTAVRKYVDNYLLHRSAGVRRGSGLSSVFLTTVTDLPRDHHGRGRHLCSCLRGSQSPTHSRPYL
Experimental: (§3) PCR of these transcripts was performed as described previously ([Alexander J. et al., 2018]; [Alexander J. L. et al., 2018]). Primer sequences for directional cloning and expression are shown in Supplementary Table 1. Correctly sized PCR products were directionally cloned into pcDNA 3.1 D/V5-His-TOPO plasmids (Invitrogen) and the recombinant vector transformed into TOP 10 competent cells (Invitrogen). Positive clones were cultured overnight in selective LB medium with 100 μg ml^–1 ampicillin, plasmids extracted (FastPlasmid Mini Kit, 5Prime, Hamburg, Germany), resequenced to confirm insert orientation and verification (MWG Eurofins, Ebersberg, Germany), and analyzed using Geneious V 9.1.8.
(§4) A heterologous cell–based assay using Chinese hamster ovary cells (CHO-K1) expressing apoaequorin (Perkin Elmer, Boston, MA, […]) and either the Gα16 or Gq subunit (control cells) was used to report intracellular Ca^2+ fluxes after exposure to ligand, as previously detailed ([Alexander J. et al., 2018]; [Alexander J. L. et al., 2018]).
(§5) Peptides used in the luminescence assay were synthetic C. maenas PDH-1-3 and e-PDH, DH-31 (Genecust Dudelange, Luxembourg). Peptides were reconstituted in 30% acetonitrile, aliquoted and dried by vacuum centrifugation and subsequently re-dissolved in BSA medium (DMEM/F, 50 mM HEPES, 0.1% BSA) immediately prior to assay, and dispensed into quadruplicate wells of white 96 well plates (OptiPlate, Perkin Elmer). Cell suspensions (5 × 10^6 cells/ml) were stirred gently and 50 μl amounts were injected into each well using a Mithras LB940 microplate reader (Berthold Technologies, Bad-Wildbad, Germany). Ca^2+ evoked luminescence was recorded for 40 s, followed by cell lysis (injection of 0.3% Triton-X 100 in BSA medium), and light emission recorded for a further 10 s. BSA medium was used for blank measurements (6 replicates per plate), and mock transfections with empty vectors for negative controls. Data reduction and analysis was done using MikroWin v5.18 (Mikrotek Laborsysteme, GmBH, Overath, Germany) and SigmaPlot v.13 (Systat Software Inc., San José CA, United States). Receptor responses were normalized against total Ca^2+ luminescence.

[3] = test system: red chromatophores (erythrophores) in the dactyl of the last walking leg; assay: chromatophore dispersion bioassay in vivo, red chromatophores (erythrophores); set-up: species or system Carcinus maenas; settings: n = 6 crabs; for dose giving significant dispersion of red chromatophores (erythrophores): 40 min after injection, 10 μl, p < 0.05, Hogben-Slome index; for dispersion of red chromatophores (in words): significant responses to doses of around 0.5 pmol per crab 40 min after injection
Experimental: as §1, §2

[4] = test system: anti-PDH antiserum R171; assay: enzyme immunoassay (EIA), cross-reactivity with PDH antiserum R171; format: binding; settings: for dose required to give an absorbance of 1.0 in the EIA: PDH antiserum R171 raised to PDH-1, 1:2000, absorbance at 405 nm
Experimental: Fixed nervous systems were processed for whole mount IHC as previously described ([Webster et al., 2013]). In some, whole eyestalks, including cuticle were taken from postmolt crabs, and routinely fixed (Bouin’s) and processed for paraffin wax embedding; thick serial sections (25–30 μm) were then prepared and processed for IHC. Primary antiserum concentrations [anti-PDH code R171, raised to a thyroglobulin conjugate of PDH-1 as described ([Dircksen et al., 1987]) and characterized ([Wilcockson et al., 2011])] was 1:2000. Secondary antiserum dilution (Alexa Fluor 488 goat anti-rabbit, Invitrogen, Thermo Fisher Scientific) was 1:750. Preparations were mounted on cavity slides using Vectashield (VectorLabs, United Kingdom), cover slipped, sealed with nail varnish, and images collected and Z-stacked at 5 μm intervals on a Zeiss 710 confocal microscope equipped with Zen Black edition software (Carl Zeiss, Jena, Germany).
To identify the neurohormonal PDH inventory, 50 sinus glands (SG) were extracted in 2 M acetic acid and separated by HPLC. Conditions: 4.6 mm × 300 mm Jupiter C18 300 Å column (Phenomenex, Macclesfield, United Kingdom) 40–80% solvent B over 30 min, 1 ml/min, detection at 210 nm, solvent A, 0.11% trifluoroacetic acid (TFA); solvent B 60% acetonitrile, 0.1% TFA. Fractions (1 ml) were dried by vacuum centrifugation and reconstituted in 0.1 M bicarbonate buffer, pH 9.3 immediately prior to immunoassay. Standard PDHs (800 pmol) were subsequently chromatographed to establish SG fractions for further MS analysis. PDH immunoreactive fractions were identified by enzyme immunoassay (EIA). Reconstituted fractions (100 μl) were coated onto high protein binding microplates (Costar 3590, Corning, VWR International, United Kingdom), overnight at 4 °C, followed by washing (3 times with 0.1 M bicarbonate buffer), blocking (0.1% BSA, 1 h RT) and incubation in 100 μl/well 1:2000 anti-PDH in containing 0.1% Tween 20 (PBST), overnight 4 °C. After washing (5 times with PBST), plates were incubated in 1:5000 goat anti-rabbit peroxidase labeled IgG (Vector laboratories, United Kingdom), for 6 h, RT. After washing (5 times with PBST), peroxidase activity was visualized (0.04% ABTS, 0.01% H2O2 (30%), 0.1 M phosphate/citrate buffer, pH 4.0). PDH-1 2500-2.5 fmol per well was used to generate standard curves for quantification. Absorbance at 405 nm was measured on a microplate reader (Mithras LB 940) with data analysis (MikroWin v5.18).

[5] = test system: red and black chromatophores in the dactyl of the last walking leg; assay: chromatophore dispersion bioassay in vivo, red and black chromatophores; set-up: species or system Carcinus maenas; settings: n = 6 crabs; for potency in chromatophore dispersion assay (in words): injected 0.05–5 pmol per crab
Experimental: as §1, §2

[6] = target: T2, PDHR 41189 (Carcinus maenas, UniProt A0A7G7MT96); assay: heterologous aequorin-based receptor luminescence assay, PDHR 41189; format: cell-based; settings: Ca2+ luminescence; for activation of PDHR 41189 (in words): CHO-K1-Aeq-Gα16 cells
T2 sequence (A0A7G7MT96 1-455): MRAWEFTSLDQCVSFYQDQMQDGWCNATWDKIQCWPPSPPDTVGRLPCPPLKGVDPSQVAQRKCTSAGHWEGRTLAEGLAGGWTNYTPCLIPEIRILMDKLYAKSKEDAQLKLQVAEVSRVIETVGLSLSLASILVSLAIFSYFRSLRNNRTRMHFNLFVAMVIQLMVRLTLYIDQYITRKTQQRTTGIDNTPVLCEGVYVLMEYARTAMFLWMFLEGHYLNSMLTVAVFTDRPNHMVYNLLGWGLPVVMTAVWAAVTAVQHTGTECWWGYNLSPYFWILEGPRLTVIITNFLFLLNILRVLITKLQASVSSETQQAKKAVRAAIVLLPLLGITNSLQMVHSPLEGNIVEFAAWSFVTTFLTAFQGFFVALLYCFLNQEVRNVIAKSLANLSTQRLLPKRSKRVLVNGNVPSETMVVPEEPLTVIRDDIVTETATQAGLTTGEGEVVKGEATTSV
Experimental: as §3, §4, §5

Substance | dispersion of black chromatophores (melanophores) (in words) [1] | activation of PDHR 43673 (in words) [2] | dose giving significant dispersion of red chromatophores (erythrophores) [3] | dispersion of red chromatophores (in words) [3] | specificity of antiserum (in words) ([4]; PDH antiserum R171) | dose required to give an absorbance of 1.0 in the EIA [4] | potency in chromatophore dispersion assay (in words) [5] | activation of PDHR 41189 (in words) [6] | dispersion of red chromatophores at the lowest dose (in words) ([3]; lowest dose, 50 fmol per crab) | chromatophore-dispersing activity (in words) ([5]; 5–50 pmol per crab, highest dose 50 pmol per crab) | EC50 ([2]; approximate EC50, CHO-K1-Aeq-Gα16 cells transiently expressing PDHR 43673, means of N = 4, normalized against maximum luminescence responses for PDH-1) | EC50 ([6]; approximate EC50, CHO-K1-Aeq-Gα16 cells transiently expressing PDHR 41189, means of N = 4, normalized against maximum luminescence responses for PDH-1)
NSELINSILGLPKVMNDA-NH2 [PDH-1] | also dispersed black chromatophores (melanophores), but to a lesser extent | activated by PDH-1 and PDH-2 at low nanomolar doses; also recorded: much more sensitive and larger luminescence responses; also recorded: activated the 43673 receptor in the low nanomolar range; also recorded: pronounced selectivity for PDH-1, -2 | around 0.5 pmol per crab | effective in dispersing red chromatophores (erythrophores) | rather marked specificity to PDH-1; also recorded: marked selectivity for this peptide | 150 fmol | exhibit biological activity in the chromatophore dispersion assay | high nanomolar concentrations of PDH-1, -2 were needed to result in a luminescent signal | – | – | – | –
NSELINSLLGLSRLMNEA-NH2 [PDH-2] | also dispersed black chromatophores (melanophores), but to a lesser extent | activated by PDH-1 and PDH-2 at low nanomolar doses; also recorded: much more sensitive and larger luminescence responses; also recorded: activated the 43673 receptor in the low nanomolar range; also recorded: pronounced selectivity for PDH-1, -2 | around 0.5 pmol per crab | effective in dispersing red chromatophores (erythrophores) | – | > 10,000 fmol | exhibit biological activity in the chromatophore dispersion assay; also recorded: very potent in the chromatophore dispersion assay | high nanomolar concentrations of PDH-1, -2 were needed to result in a luminescent signal | some pigment dispersion was observed at the lowest dose (50 fmol per crab) although this was transient and statistically not significant | – | – | –
NSELINTLLGSQDLGNMRNA-NH2 [e-PDH] | – | micromolar concentrations of PDH-3 and e-PDH were necessary to activate this receptor; also recorded: even micromolar concentrations of PDH-3 and e-PDH were needed to produce rather weak luminescence responses | – | – | – | 8000 fmol | – | activated by PDH-3 and an extended 20 residue e-PDH; also recorded: activated by PDH-3 and e-PDH at low nanomolar concentrations; also recorded: low nanomolar concentrations of PDH-3 and e-PDH activated this receptor; also recorded: preferentially activated by PDH-3 and e-PDH | – | entirely without chromatophore-dispersing activity, even at the highest dose used | – | –
PDH-3: synthetic C. maenas pigment dispersing hormone 3, 18 residues, C-terminal Ala-amide; MN602309 | – | – | – | – | – | – | – | – | – | – | 10 µM | 0.025 µM
diuretic hormone-31 [DH-31, reference compound] | – | Neither receptor was activated by DH-31 | – | – | – | – | – | Neither receptor was activated by DH-31 | – | – | – | –
